Here are results for one compound from ChEMBL document CHEMBL5528053, “Discovery of Novel Isoquinoline Analogues as Dual Tubulin Polymerization/V-ATPase Inhibitors with Immunogenic Cell Death Induction” (J Med Chem, 2024).

Usually IC50 stands for the concentration needed to halve the response being measured. One may read the Kd as a measure of binding affinity in units of concentration. For orientation: inhibition means the change of the read-out against control, counted positive when it falls.

SMILES strings stand for the structures. The source made the active and inactive calls. The rule behind the calls is not given here.

The test system of one data set is DU-145. Description: Antiproliferative activity against human DU-145 cells assessed as inhibition of cell growth after 72 hrs by MTT assay. It counts as functional, cell-based. To be noted: DU-145, 72 h. A general note: Tetrazolium dyes change colour on reduction, which living cells bring about.
Data set [1] in a line: Binding affinity to porcine brain tubulin polymerization assessed as dissociation constant measured after 20 mins by fluorescence based analysis. The format is tissue-based, Sus scrofa.
The next data set concerns the target Tubulin (Homo sapiens) (UniProt P68371+Q9H4B7+P0DPH7+P68366+Q13509+Q71U36+P04350+Q3ZCM7+P07437+P68363+Q9BQE3+Q6PEY2+Q13885+Q9BVA1+Q9BUF5). Description: (§1) Inhibition of tubulin polymerization (unknown origin) measured every 60 secs for 60 mins by microplate reader based analysis. It counts as protein-complex assay. To be noted: dose 1.25-40 µM.
A further data set concerns the target Tubulin. The data set is described as §1. It counts as protein-complex assay, Homo sapiens.
For data set [2], the system named is PC-3. Description: Inhibition of V-ATPase activity in human PC-3 cells at 100 nM measured after 24 hrs by colorimetric assay relative to control. It counts as cell-based.
The subject of data set [3] is PC-3. Put plainly: Inhibition of V-ATPase activity in human PC-3 cells at 200 nM measured after 24 hrs by colorimetric assay relative to control. The format is cell-based.
In data set [4] the test system is PC-3. Put plainly: Inhibition of V-ATPase activity in human PC-3 cells at 800 nM measured after 24 hrs by colorimetric assay relative to control. The format is cell-based.
For data set [5], the system named is PC-3. Put plainly: Inhibition of V-ATPase activity in human PC-3 cells measured after 24 hrs by colorimetric assay. It counts as cell-based. As to conditions: dose 50-800 nM.
Data set [6] has as its system PC-3. Description: Induction of cell cycle arrest in human PC-3 cells assessed as accumulation of cells at S phase at 50 nM incubated for 24 hrs by flow cytometry analysis (reference value: 31.3%). It counts as functional. For orientation: Flow cytometry measures light scatter and fluorescence of single cells or particles in a stream.
In data set [7] the test system is PC-3. Description: Induction of cell cycle arrest in human PC-3 cells assessed as accumulation of cells at G2/M phase at 50 nM incubated for 24 hrs by flow cytometry analysis (reference value: 19.5%). It counts as functional.
Data set [8] relates to PC-3. Description: Induction of cell cycle arrest in human PC-3 cells assessed as reduction in cdc25c phosphorylation at ser216 residue at 50 to 200 nM incubated for 24 hrs by DAPI staining based analysis. It counts as functional. As to conditions: dose 50-200 nM.
Data set [9] deals with PC-3. Put plainly: Induction of cell cycle arrest in human PC-3 cells assessed as reduction in cyclin B1 at 50 to 200 nM incubated for 24 hrs by DAPI staining based analysis. It counts as functional. As to conditions: dose 50-200 nM.
Data set [10] concerns PC-3. Put plainly: Induction of apoptosis in human PC-3 cells assessed as early apoptotic cells at 200 nM measured after 24 hrs by annexin V-FITC and PI staining based flow cytometry analysis (reference value: 1.03%). It counts as functional.
For data set [11], the system named is PC-3. Put plainly: Induction of apoptosis in human PC-3 cells assessed as late apoptotic cells at 200 nM measured after 24 hrs by annexin V-FITC and PI staining based flow cytometry analysis (reference value: 2.37%). The format is functional.
In data set [12] the test system is PC-3. Description: Induction of apoptosis in human PC-3 cells assessed as increase in bax level at 50 to 200 nM incubated for 24 hrs by Western blot analysis. To be noted: dose 50-200 nM. It counts as functional, cell-based.
A short description of data set [13]: Antitumor activity against mouse RM1 cells xenografted in immunocompetent […] mouse model assessed as tumor growth inhibition at 10 mg/kg, iv measured every two days for 14 days relative to control. To be noted: RM1, 336 h, time 14 day, read-out: TGI. The format is functional.
Data set [14] in a line: Toxicity in ICR mouse assessed as effect on lymphocytes at 10 mg/kg, ip measured for 14 days. It counts as organism-based. To be noted: in vivo, 336 h, time 14 day.
Data set [15] can be described thus: Toxicity in ICR mouse assessed as effect on ALT level at 10 mg/kg, ip measured for 14 days. To be noted: in vivo, 336 h, time 14 day. The format is organism-based.
The test system of data set [16] is PC-3. Put plainly: Upregulation of intracellular eIF2alpha expression at […] residues in human PC-3 cells incubated for 24 hrs by DAPI staining based analysis. It counts as functional, cell-based. As to conditions: dose 50-200 nM.
Data set [17] relates to PC-3. Description: Induction of endoplasmic reticulum (ER) stress in human PC-3 cells assessed as upregulation of eIF2 alpha phosphorylation at […] residues at 50 to 200 nM measured after 24 hrs by Western blot analysis. The format is functional, cell-based. To be noted: dose 50-200 nM.
The test system of data set [18] is PC-3. Description: Induction of immunogenic cell death in human PC-3 cells assessed as increase in HMGB1 release from nuclei at 50 to 200 nM measured after 24 hrs by DAPI staining based analysis. The format is functional. To be noted: dose 50-200 nM.
In data set [19] the test system is PC-3. Description: Induction of immunogenic cell death in human PC-3 cells assessed as decrease in HMGB1 content in tumor cells at 50 to 200 nM. It counts as functional, cell-based. As to conditions: dose 50-200 nM.
Data set [20] can be described thus: Antitumor activity against mouse RM1 cells homografted in C57BL/6 mouse model assessed as tumor growth inhibition at 5 mg/kg, iv administered every two days for 14 days by vernier caliper based analysis relative to control. The format is functional. To be noted: RM1, 336 h, time 14 day, read-out: TGI.
Data set [21] in a line: Antitumor activity against mouse RM1 cells homografted in C57BL/6 mouse model assessed as tumor growth inhibition at 10 mg/kg, iv administered every two days for 14 days by vernier caliper based analysis relative to control. It counts as functional. To be noted: RM1, 336 h, time 14 day, read-out: TGI.

`COc1cc(-c2nc(C(N)=O)cc3cc4c(cc23)OCCO4)cc(Br)c1OC`: the IC50 was 0.11 µM in the data set on DU-145 and 6.33 µM at Tubulin. Also, the Kd in [1] was found to be 6.56 µM. Further, the inhibition entry on Tubulin (Homo sapiens) is “Dose-Dependent Effect”; with PC-3 [2], 26.2%; in the data set with PC-3 [3] it was 36.7%; with PC-3 [4] it was 77.4%; with PC-3 [5], “Dose-Dependent Effect”. The Activity with PC-3 [6] is 29.3%; in the data set on PC-3 [7] it was 30.9%; in the data set on PC-3 [10], 22.7%; with PC-3 [11], 19.4%; in data set [14], “Non-Toxic”; in [15] it was “Non-Toxic”. For the same compound, in the data set with PC-3 [16], the Activity result was “Dose-Dependent Effect”. Besides, the result in the data set on PC-3 [8], with PC-3 [9], in the data set on PC-3 [12], in the data set with PC-3 [17], in the data set with PC-3 [18] and with PC-3 [19] was Active. Besides, the inhibition in vivo at 10 mg/kg in data set [13] and in data set [21] was 70.2% in each case. The inhibition in vivo at 5 mg/kg in [20] worked out at 61.6%.
